{"source": "patent US20030180375A1", "about": "“Use of xenon for treating neurointoxications” (AGA AB, priority 1999, published 2003)", "key": {"PC12 cells [1]": {"system": "PC12 cells", "experiment": "Dopamine release of differentiated PC12 cells under stress conditions (N2 hypoxia, glutamate), Example 2", "assay_type": "cell-based, rats", "design": "dopamine release: dose or concentration left out as unconfirmed", "details": "FIG. 2", "source_text": "The differentiated PC12 cells described in Example 1 were distributed to various vessels and exposed to differing conditions. These conditions are defined as follows: […]\nThe dopamine release may even be increased if, in addition to the nitrogen atmosphere, glutamate, which represents a neurotransmitter and has a neurotoxic effect in greater doses, was given as well (group: Glu+N2).\nThus, the addition of glutamate to the cells effects an increased dopamine release, particularly when the cells are kept under hypoxic conditions."}, "PC12 cells [2]": {"system": "PC12 cells", "experiment": "Dopamine release of differentiated PC12 cells in a hypoxic situation (helium instead of oxygen), Example 1", "assay_type": "cell-based, rats", "source_text": "An in vitro experiment with PC12 cells is concerned. These PC12 cells are dependants of a pheochromocytoma of rats. […] PC12 cells can be reproduced continuously in vitro. Following the addition of “nerve growth factor”, they start differentiating and become neurons which in many respects have the property of in vivo neurons, particularly the properties which relate to the neurotransmitter release. PC12 cells are acknowledged as neuronal model.\nPC12 cells differentiated in such a manner when exposed to a hypoxic situation, release dopamine. […] If the cells are treated under these hypoxic conditions with xenon in defined concentrations over the same period of time, the neurotransmitter release will be dropped. […] If a hypoxic situation is triggered by a dose of helium instead of oxygen, the curve of the dopamine concentration will result as shown in the curve produced from the solid triangles. A maximum dopamine concentration is shown in this case after about 40 minutes. […] In the above-described experiment, the gases used were given to the cells by mixing them with the growth buffer for the cells. In this case, saturated gas buffer solutions are involved."}}, "data": [{"smiles": "[Xe]", "note": "[xenon]", "values": [{"measurement": "dopamine release compared to the corresponding (glutamate+N2) experiment", "setting": "PC12 cells [1]; Glu+Xe: 10 M glutamate for 30 minutes of incubation in xenon", "result": "reduced by two-thirds"}, {"measurement": "dopamine release", "setting": "PC12 cells [1]; Glu+Xe: glutamate for 30 minutes of incubation in xenon", "result": "slightly increased dopamine release"}, {"measurement": "unintentional neurotransmitter release", "setting": "PC12 cells [1]; simultaneous supply of xenon, glutamate and/or hypoxic conditions", "result": "reduced many times over"}, {"measurement": "reversibility of the xenon effect", "setting": "PC12 cells [2]; after the xenon is washed out, cells cannot be distinguished from untreated cells", "result": "fully reversible"}, {"measurement": "dopamine concentration over the time course", "setting": "PC12 cells [2]; xenon given in a hypoxic situation, saturated gas buffer solution, compared with non-stressed controls, FIG. 1A", "result": "virtually no longer differ from the control cell population"}, {"measurement": "relative dopamine concentration (dopamine release)", "setting": "PC12 cells [2]; xenon in a hypoxic situation, compared with control cells, FIG. 1B", "result": "reduced down to values of the control cells"}]}]}
